According to patent US12723063B2, “GIPR-agonist compounds” (Eli Lilly and Company, priority 2019, dated 2026):
*1 amine or outer side, *2 acyl side, *3 side chain or, on linkers, in order; H or OH if unused. Where a SMILES comes first, the peptide text is derived from it. Side-chain parts run from the residue outwards. [ ]: non-standard residue; d: D form. The star is where a group is joined. C20 diacid = O=C(O)CCCCCCCCCCCCCCCCCCC(=O)*; γGlu = O=C(O)[C@H](CCC(=O)[*:2])N[*:1]; 4Pal = N[C@@H](Cc1ccncc1)C(=O)O; αMeL = CC(C)C[C@](C)(N)C(=O)O; Iva = CC[C@](C)(N)C(=O)O; AEEA = NCCOCCOCC(=O)O; Aib = CC(C)(N)C(=O)O

Key:
human GIPR = molecular target: T1, human GIPR (Homo sapiens, UniProt P48546); assay: [125I]-GIP binding, SPA with WGA beads, 0.1% bacitracin; settings: geometric mean, read-out: hGIPR Ki
T1 construct: expressed in transfected cells; crude membranes
T1 sequence (P48546 22-466): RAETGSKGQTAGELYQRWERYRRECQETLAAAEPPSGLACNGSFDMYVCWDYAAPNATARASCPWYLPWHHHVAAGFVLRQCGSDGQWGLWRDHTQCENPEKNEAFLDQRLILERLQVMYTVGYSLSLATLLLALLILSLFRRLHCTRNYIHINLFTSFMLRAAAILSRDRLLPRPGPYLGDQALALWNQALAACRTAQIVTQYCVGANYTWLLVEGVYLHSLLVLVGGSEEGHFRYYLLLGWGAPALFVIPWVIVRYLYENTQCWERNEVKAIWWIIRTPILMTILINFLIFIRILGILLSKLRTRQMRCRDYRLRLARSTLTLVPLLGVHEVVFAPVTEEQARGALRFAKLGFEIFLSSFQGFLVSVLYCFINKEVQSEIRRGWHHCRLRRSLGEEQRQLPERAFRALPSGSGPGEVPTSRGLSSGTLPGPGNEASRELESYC
How it was run: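 Ki values are geometric means (SEM, n independent days), derived from four-parameter nonlinear regression of IC50. Membranes came from hGIPR-expressing CHO cells.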

[1] = molecular target: T2, human glucose-dependent insulinotropic peptide receptor (GIPR) (Homo sapiens, UniProt P48546); assay: cAMP functional assay (HTRF) in HEK293 cells in presence of 0.1% casein; assay type: cell-based; settings: HEK293 cells expressing human GIPR, geometric mean, read-out: hGIPR cAMP Rel EC50 nM (SEM, n)
T2 construct: expressed in transfected cells; host or cells: HEK293
T2 sequence (P48546 22-466): T1 sequence (P48546 22-466)

For CC[C@H](C)[C@H](NC(=O)[C@H](CO)NC(=O)[C@H](Cc1ccc(O)cc1)NC(=O)[C@H](CC(=O)O)NC(=O)[C@H](CO)NC(=O)[C@@H](NC(=O)[C@](C)(CC)NC(=O)[C@@H](NC(=O)CNC(=O)[C@H](CCC(=O)O)NC(=O)C(C)(C)NC(=O)[C@@H](N)Cc1ccc(O)cc1)[C@@H](C)O)[C@@H](C)CC)C(=O)N[C@@](C)(CC(C)C)C(=O)N[C@@H](CC(C)C)C(=O)N[C@@H](CC(=O)O)C(=O)N[C@@H](CCCCN)C(=O)N[C@@H](CCCCNC(=O)COCCOCCNC(=O)COCCOCCNC(=O)CC[C@H](NC(=O)CCCCCCCCCCCCCCCCCCC(=O)O)C(=O)O)C(=O)N[C@@H](Cc1c[nH]cn1)C(=O)N[C@@H](CCC(N)=O)C(=O)NC(C)(C)C(=O)N[C@@H](CC(=O)O)C(=O)N[C@@H](Cc1ccccc1)C(=O)N[C@H](C(=O)N[C@@H](CCC(=O)O)C(=O)N[C@@H](Cc1ccncc1)C(=O)N[C@@H](CC(C)C)C(=O)N[C@@H](CC(C)C)C(=O)N[C@@H](CCC(=O)O)C(=O)N[C@H](C(=O)NCC(=O)N1CCC[C@H]1C(=O)N[C@@H](CO)C(=O)N[C@@H](CO)C(=O)NCC(=O)N[C@@H](C)C(=O)N1CCC[C@H]1C(=O)N1CCC[C@H]1C(=O)N1CCC[C@H]1C(=O)N[C@@H](CO)C(N)=O)[C@@H](C)O)C(C)C [Example 75] (H-Y[Aib]EGT[Iva]ISDYSI[αMeL]LDKK([AEEA-AEEA-γGlu-C20 diacid])HQ[Aib]DFVE[4Pal]LLETGPSSGAPPPS-NH2), the Ki (human GIPR) was 0.0626 nM and the EC50 [1] was 0.0182 nM.
With CC[C@H](C)[C@H](NC(=O)[C@H](CO)NC(=O)[C@H](Cc1ccc(O)cc1)NC(=O)[C@H](CC(=O)O)NC(=O)[C@H](CO)NC(=O)[C@@H](NC(=O)[C@H](Cc1ccccc1)NC(=O)[C@@H](NC(=O)CNC(=O)[C@H](CCC(=O)O)NC(=O)[C@@H](C)NC(=O)[C@@H](N)Cc1ccc(O)cc1)[C@@H](C)O)[C@@H](C)CC)C(=O)N[C@@H](CC(C)C)C(=O)N[C@@H](CC(C)C)C(=O)N[C@@H](CC(=O)O)C(=O)N[C@@H](CCCCN)C(=O)N[C@@H](CCCCNC(=O)COCCOCCNC(=O)COCCOCCNC(=O)CC[C@H](NC(=O)CCCCCCCCCCCCCCCCCCC(=O)O)C(=O)O)C(=O)N[C@@H](Cc1c[nH]cn1)C(=O)N[C@@H](CCC(N)=O)C(=O)NC(C)(C)C(=O)N[C@@H](CC(=O)O)C(=O)N[C@@H](Cc1ccccc1)C(=O)N[C@H](C(=O)N[C@@H](CC(N)=O)C(=O)N[C@@H](Cc1c[nH]c2ccccc12)C(=O)N[C@@H](CC(C)C)C(=O)N[C@@H](CC(C)C)C(=O)N[C@@H](C)C(=O)N[C@@H](CCC(N)=O)C(=O)NCC(=O)N1CCC[C@H]1C(=O)N[C@@H](CO)C(=O)N[C@@H](CO)C(=O)NCC(=O)N[C@@H](C)C(=O)N1CCC[C@H]1C(=O)N1CCC[C@H]1C(=O)N1CCC[C@H]1C(=O)N[C@@H](CO)C(N)=O)C(C)C [Example 9] (H-Y[dA]EGTFISDYSILLDKK([AEEA-AEEA-γGlu-C20 diacid])HQ[Aib]DFVNWLLAQGPSSGAPPPS-NH2) the Ki (human GIPR) was 0.11 nM and the EC50 [1] was 0.165 nM.
